Experimental findings from patent US20250304585A1, “SULFAMATE BASED COVALENT LIGAND-DIRECTED RELEASE (COLDR) COMPOUNDS” (priority 2022, published 2025) are described below.

pIC50: −log10 of the molar value. Several values for one entry are separate records, joined by “and”; a condition that tells them apart may be missing. Equal values may be shown once. Read-outs that look alike come from different tables or passages of the source.

One data set has as its target BTK C481S mutant (Homo sapiens (Human), UniProt Q06187, C481S). Description: In vitro kinase activity assay with BTK C481S mutant. Type of data set: biochemical. Conditions: for IC50: BTK C481S mutant, read-out: C481S (IC50 μM); for C481S/BTK: ratio of off-target/BTK IC50.
Another data set has as its target EGFR (Homo sapiens (Human), UniProt P00533). Nature of the data set: In vitro kinase activity assay with EGFR. Type of data set: biochemical. Conditions: for EGFR/BTK: ratio of off-target/BTK IC50.
In data set [1] the target is T1, BTK (Homo sapiens (Human), UniProt Q06187). Description: In vitro kinase activity assay. Type of data set: biochemical. Conditions: for IC50: 0.5 nM BTK, 5 μM ATP, read-out: BTK (IC50 μM); for pIC50: read-out: IC50 against BTK.
T1 sequence (Q06187 whole entry, looked up, the tested form may be a part): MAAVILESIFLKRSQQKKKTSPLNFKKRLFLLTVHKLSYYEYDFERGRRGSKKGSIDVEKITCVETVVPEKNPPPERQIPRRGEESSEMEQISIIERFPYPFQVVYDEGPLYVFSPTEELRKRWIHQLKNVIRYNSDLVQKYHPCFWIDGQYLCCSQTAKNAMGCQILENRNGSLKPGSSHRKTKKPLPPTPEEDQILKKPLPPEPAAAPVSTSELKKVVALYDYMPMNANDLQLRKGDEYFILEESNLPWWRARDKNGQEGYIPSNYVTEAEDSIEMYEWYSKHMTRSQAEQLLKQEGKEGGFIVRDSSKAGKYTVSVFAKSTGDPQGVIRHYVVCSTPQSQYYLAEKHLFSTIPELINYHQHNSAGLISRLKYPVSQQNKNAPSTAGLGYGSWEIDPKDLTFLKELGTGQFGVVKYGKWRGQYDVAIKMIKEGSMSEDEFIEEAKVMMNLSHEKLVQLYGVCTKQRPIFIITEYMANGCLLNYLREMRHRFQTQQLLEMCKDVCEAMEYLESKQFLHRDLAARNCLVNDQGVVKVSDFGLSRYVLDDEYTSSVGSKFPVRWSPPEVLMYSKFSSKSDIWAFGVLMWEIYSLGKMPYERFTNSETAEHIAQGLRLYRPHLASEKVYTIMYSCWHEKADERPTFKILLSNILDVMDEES
For the next data set, the target named is BTK kinase domain (Homo sapiens (Human), UniProt Q06187). Description: In-vitro labeling of recombinant BTK, intact protein LC/MS. Type of data set: binding. Conditions: 2 μM BTK, 2 μM compound.
Sequence of BTK kinase domain (Q06187 402-655): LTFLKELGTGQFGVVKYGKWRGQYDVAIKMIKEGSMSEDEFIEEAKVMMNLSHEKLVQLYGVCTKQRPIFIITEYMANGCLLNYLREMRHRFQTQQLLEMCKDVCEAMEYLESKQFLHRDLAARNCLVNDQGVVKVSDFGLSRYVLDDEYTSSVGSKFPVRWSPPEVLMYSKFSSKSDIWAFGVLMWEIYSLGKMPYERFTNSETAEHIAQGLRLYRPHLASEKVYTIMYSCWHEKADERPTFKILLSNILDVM
A short description of data set [2]: GSH reactivity (consumption) assay. Type of data set: physicochemical. The conditions noted are these: for covalent bond formation with GSH: assay conditions or up to 37° C. for 24 h; for GSH reactivity relative to chloroacetamide (1a): model compounds.
Data set [3] deals with T1, BTK. Description: BTK activity (autophosphorylation) in Mino cells. Type of data set: cell-based. The conditions noted are these: anti-IgM activation, read-out: IC50 of BTK autophosphorylation inhibition.
Description: The cell pellets were subjected to immunoblotting and performed Western blots for p-BTK, BTK and β-actin.
Cell pellets were washed with ice-cold PBS and lysed using RIPA-buffer (Sigma, R0278). […] EZ-ECL Kit (Biological Industries, 20-500-1000) was used to detect HRP-activity.
The target in data set [4] is BTK (Mus musculus (Mouse), UniProt P35991). Nature of the data set: BTK engagement in treated mice spleens. Type of data set: in vivo. How it is done:
Lysates were diluted to 2 mg/ml, […] per sample, and incubated for 1 h in room temperature with […] probe 4 to label BTK. Lysates were then clicked to TAMRA-azide and imaged using ChemiDoc MP (546 nm) as described in the In-gel fluorescence protocol.

The nature of data set [5]: Metabolic stability with human liver microsomes. The conditions noted are these: five-minute incubation. For orientation: Liver microsomes are vesicles of endoplasmic reticulum, rich in cytochrome P450 enzymes.
Data set [6] concerns Mino cells. Nature of the data set: Competitive pull-down proteomics. Type of data set: cell-based. Conditions: 1 μM, fold-enrichment>4 and p-value<0.05.
In data set [7] the test system is TCL1 adoptive transfer mouse model for CLL. Nature of the data set: TCL1 adoptive transfer mouse model for CLL. Type of data set: in vivo. The conditions noted are these: after two weeks of treatment.
The subject of data set [8] is Mino cells. Description: Proteomic reactivity of model alkyne probes. Type of data set: cell-based. Conditions: compared with 2b.

By IC50 is commonly meant the concentration that inhibits the measured activity by half. One may read the pIC50 as the IC50 on a negative log10 scale, so that one unit is a factor of ten.

Sequence of EGFR (P00533 25-1210): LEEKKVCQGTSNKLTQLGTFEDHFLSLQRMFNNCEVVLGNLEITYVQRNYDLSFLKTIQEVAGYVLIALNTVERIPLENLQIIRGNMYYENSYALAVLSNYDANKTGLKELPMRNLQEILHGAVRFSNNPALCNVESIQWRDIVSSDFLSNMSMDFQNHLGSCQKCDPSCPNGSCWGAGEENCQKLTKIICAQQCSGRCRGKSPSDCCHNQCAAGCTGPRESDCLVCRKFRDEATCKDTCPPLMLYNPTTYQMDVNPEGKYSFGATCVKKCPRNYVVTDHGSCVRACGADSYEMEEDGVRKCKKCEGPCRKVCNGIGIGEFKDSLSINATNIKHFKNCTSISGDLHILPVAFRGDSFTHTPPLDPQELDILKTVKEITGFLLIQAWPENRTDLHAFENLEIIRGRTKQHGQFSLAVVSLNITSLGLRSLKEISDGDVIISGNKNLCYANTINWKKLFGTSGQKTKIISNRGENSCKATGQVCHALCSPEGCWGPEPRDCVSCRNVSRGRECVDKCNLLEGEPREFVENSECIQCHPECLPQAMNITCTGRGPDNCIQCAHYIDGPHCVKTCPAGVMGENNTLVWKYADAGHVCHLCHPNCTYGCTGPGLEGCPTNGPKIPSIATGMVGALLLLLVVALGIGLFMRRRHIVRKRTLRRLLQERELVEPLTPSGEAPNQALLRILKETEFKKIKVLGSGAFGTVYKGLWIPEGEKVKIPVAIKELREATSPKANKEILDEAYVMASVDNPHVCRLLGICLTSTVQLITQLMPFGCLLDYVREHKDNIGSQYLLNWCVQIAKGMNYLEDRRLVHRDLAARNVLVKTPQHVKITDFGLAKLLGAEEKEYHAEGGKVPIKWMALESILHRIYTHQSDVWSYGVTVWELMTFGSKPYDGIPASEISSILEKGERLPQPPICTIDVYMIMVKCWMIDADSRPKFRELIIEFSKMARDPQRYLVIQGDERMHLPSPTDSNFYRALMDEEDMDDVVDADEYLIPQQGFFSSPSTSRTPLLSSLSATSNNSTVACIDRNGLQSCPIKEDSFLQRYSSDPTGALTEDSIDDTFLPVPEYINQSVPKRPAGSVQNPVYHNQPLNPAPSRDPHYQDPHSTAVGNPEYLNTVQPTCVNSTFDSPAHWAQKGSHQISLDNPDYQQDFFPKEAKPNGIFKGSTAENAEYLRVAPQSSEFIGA
Sequence of BTK C481S mutant (Q06187 whole entry C481S, looked up): as the sequence (Q06187 whole entry, looked up, the tested form may be a part) above, with C481S counted along it
Sequence of BTK (Mus musculus (Mouse), UniProt P35991) (P35991 whole entry): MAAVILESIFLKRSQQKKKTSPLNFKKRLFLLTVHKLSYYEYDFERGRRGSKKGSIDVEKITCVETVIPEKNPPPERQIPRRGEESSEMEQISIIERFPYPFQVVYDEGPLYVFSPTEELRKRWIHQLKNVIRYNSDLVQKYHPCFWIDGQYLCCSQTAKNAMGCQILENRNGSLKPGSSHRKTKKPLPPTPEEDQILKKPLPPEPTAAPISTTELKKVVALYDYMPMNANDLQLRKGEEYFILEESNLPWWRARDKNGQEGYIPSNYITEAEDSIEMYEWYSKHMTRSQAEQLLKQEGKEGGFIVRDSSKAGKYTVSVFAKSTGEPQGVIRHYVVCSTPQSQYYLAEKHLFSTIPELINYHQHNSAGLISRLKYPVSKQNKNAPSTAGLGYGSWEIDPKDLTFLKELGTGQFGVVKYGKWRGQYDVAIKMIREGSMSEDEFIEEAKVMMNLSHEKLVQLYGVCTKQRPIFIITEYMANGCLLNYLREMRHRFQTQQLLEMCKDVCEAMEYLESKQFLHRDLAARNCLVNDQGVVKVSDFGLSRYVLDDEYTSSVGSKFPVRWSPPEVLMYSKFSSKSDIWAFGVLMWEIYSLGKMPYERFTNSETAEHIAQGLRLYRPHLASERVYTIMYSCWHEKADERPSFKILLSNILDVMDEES

Regarding `Nc1ncnc2c1c(-c1ccc(Oc3ccccc3)cc1)nn2[C@@H]1CCCN(C(=O)COS(=O)(=O)Nc2ccccc2)C1` [Compound 3e, (R)-2-(3-(4-amino-3-(4-phenoxyphenyl)-1H-pyrazolo[3,4-d]pyrimidin-1-yl)piperidin-1-yl)-2-oxoethyl phenylsulfamate], on BTK C481S mutant, the IC50 was 0.275 µM and the C481S/BTK turned out to be 2.9. Besides, on EGFR, inhibition was half-maximal at 1.96 µM (IC50) and the EGFR/BTK worked out at 20.6. In addition, at BTK [1], the “fold weaker IC50 than Ibrutinib” value turned out to be 10 fold; the IC50 was 0.0949 µM and 0.095 µM; the pIC50 is 7.00.
Take `Nc1ncnc2c1c(-c1ccc(Oc3ccccc3)cc1)nn2[C@@H]1CCCN(C(=O)CS(=O)(=O)c2ccccc2)C1` [Compound 3g, (R)-1-(3-(4-amino-3-(4-phenoxyphenyl)-1H-pyrazolo[3,4-d]pyrimidin-1-yl)piperidin-1-yl)-2-(phenylsulfonyl)ethan-1-one]: the “covalent labeling of BTK (LC/MS)” value at BTK kinase domain is “failed to react covalently with BTK”.
With `CS(=O)(=O)CC(=O)NCc1ccccc1` [Compound 1i, N-benzyl-2-(methylsulfonyl)acetamide], the “covalent bond formation with GSH” value in data set [2] is recorded as “did not form a covalent bond with GSH”.
Take `O=C(COS(=O)(=O)NCc1ccccc1)NCc1ccccc1` [Compound 1e, 2-(benzylamino)-2-oxoethyl benzylsulfamate]: in data set [2], the “GSH reactivity relative to chloroacetamide (1a)” value is given as “an order of magnitude less reactivity”.
`CNS(=O)(=O)OCC(=O)NCc1ccccc1` [Compound 1d, 2-(benzylamino)-2-oxoethyl methylsulfamate]: the “GSH reactivity relative to chloroacetamide (1a)” value in [2] was “an order of magnitude less reactivity”.
On to `CS(=O)(=O)OCC(=O)N1CCC[C@@H](n2nc(-c3ccc(Oc4ccccc4)cc3)c3c(N)ncnc32)C1` [Compound 3b, (R)-2-(3-(4-amino-3-(4-phenoxyphenyl)-1H-pyrazolo[3,4-d]pyrimidin-1-yl)piperidin-1-yl)-2-oxoethyl methanesulfonate], for which the pIC50 at BTK [3] is 8.22. For the same compound, on BTK [1], the IC50 is 0.0464 µM and 0.046 µM.
Turning to `CS(=O)(=O)CC(=O)N1CCC[C@@H](n2nc(-c3ccc(Oc4ccccc4)cc3)c3c(N)ncnc32)C1` [Compound 3f, (R)-1-(3-(4-amino-3-(4-phenoxyphenyl)-1H-pyrazolo[3,4-d]pyrimidin-1-yl)piperidin-1-yl)-2-(methylsulfonyl)ethan-1-one], the “covalent labeling of BTK (LC/MS)” value on BTK kinase domain was “failed to react covalently with BTK”.
In the case of `CNS(=O)(=O)OCC(=O)N1CCC[C@@H](n2nc(-c3ccc(Oc4ccccc4)cc3)c3c(N)ncnc32)C1` [Compound 3c, (R)-2-(3-(4-amino-3-(4-phenoxyphenyl)-1H-pyrazolo[3,4-d]pyrimidin-1-yl)piperidin-1-yl)-2-oxoethyl methylsulfamate], on BTK C481S mutant, the pIC50 is 6.13, the “fold potency lost against the C481S mutant” value was 30-85 fold and the C481S/BTK was determined as 85.6. Besides, the “BTK engagement in vivo (ibrutinib-alkyne probe labeling of spleen lysate)” value at BTK [4] was “do not show probe labeling”. The “remained intact after incubation with human liver microsomes” value in data set [5] is on record as “over 30%”. Moreover, the “number of off-targets (competitive pull-down)” value in the data set on Mino cells [6] came out at 6. Moreover, at EGFR, 0.241 µM corresponded to half-maximal inhibition (IC50) and the EGFR/BTK amounted to 27.9. Besides, the pIC50 on BTK [3] is 8.44. The spleen size entry in [7] is on record as “visually smaller”. Besides, on BTK [1], the IC50 was 0.00864 µM and 0.0086 µM; the pIC50 is approximately 8.00.
Consider `O=C(CS(=O)(=O)c1ccccc1)NCc1ccccc1` [Compound 1j, N-benzyl-2-(phenylsulfonyl)acetamide], for which the “covalent bond formation with GSH” value in [2] was “did not form a covalent bond with GSH”.
Take `C#Cc1ccc(NC(=O)COS(=O)(=O)NCc2ccccc2)cc1` [Compound 2a, 2-((4-ethynylphenyl)amino)-2-oxoethyl benzylsulfamate]: the “proteomic reactivity (proteins enriched)” value in the data set with Mino cells [8] was “enriching more proteins”.
In the case of `C#Cc1ccc(NC(=O)CCl)cc1` [Compound 2c, 2-chloro-N-(4-ethynylphenyl)acetamide], the “proteomic reactivity (proteins enriched)” value in the data set on Mino cells [8] is recorded as “enriching more proteins”.
In the case of `Nc1ncnc2c1c(-c1ccc(Oc3ccccc3)cc1)nn2[C@@H]1CCCN(C(=O)COS(=O)(=O)NCc2ccccc2)C1` [Compound 3d, (R)-2-(3-(4-amino-3-(4-phenoxyphenyl)-1H-pyrazolo[3,4-d]pyrimidin-1-yl)piperidin-1-yl)-2-oxoethyl benzylsulfamate], at BTK C481S mutant, the “fold potency lost against the C481S mutant” value is 30-85 fold, the IC50 came to 1.28 µM and the C481S/BTK is recorded as 52.8. Besides, the “number of off-targets (competitive pull-down)” value with Mino cells [6] amounted to 20. Besides, on EGFR, the IC50 came out at 0.533 µM and the EGFR/BTK worked out at 22.0. Besides, at BTK [1], the IC50 is 0.0242 µM and 0.024 µM; the pIC50 was approximately 8.00.
Take `C#CCOS(=O)(=O)N1CCC[C@@H](n2nc(-c3ccc(Oc4ccccc4)cc3)c3c(N)ncnc32)C1` [Compound 3j, prop-2-yn-1-yl (R)-3-(4-amino-3-(4-phenoxyphenyl)-1H-pyrazolo[3,4-d]pyrimidin-1-yl)piperidine-1-sulfonate]: the “reaction with GSH” value in data set [2] (same conditions as Ibrutinib) is recorded as “did not undergo any reaction with GSH”.
